Usually Solubility stands for how much of the substance goes into solution per volume. In general, solubility refers to the concentration that dissolves in the medium under given conditions. Usually logP stands for the decadic logarithm of the partition coefficient of the neutral form, usually between octanol and water. Read a low logP as a more hydrophilic compound. By pKa is commonly meant the pH at which an ionisable group is half protonated. Read a high pKa as a weaker acid or stronger base. A word on the Vdss: it is a proportionality between amount in the body and measured concentration, not a real space.

The values that follow come from patent US5069909A, “Transdermal administration of buprenorphine” (Cygnus Therapeutic Systems, priority 1990, dated 1991).

Data set [1] is classed as in vitro ADME, Human. The note with it: 32° C.; for Jskin: aqueous (deionized water) saturated solution, side-by-side cells; for increase of skin flux upon stripping (fold): stripped vs heat-separated epidermis. The procedure: (§1) Stirring was set at 200 rpm throughout the experiment. […] The samples were assayed by HPLC.
In order to determine the principal diffusional barrier of skin in transporting both base and HCl salt across the membrane, the permeating of drug through heat-separated epidermis was compared with stripped epidermis. Stripping removes most of the stratum corneum. The skin was stripped with Scotch brand cellophane tape to remove stratum corneum twenty times. Permeations of the base and the HCl salt through heat-separated epidermis and stripped epidermis from saturated aqueous solution at 32° C. are shown in Table 7.

The conditions of data set [2]: flow-through cells.
Data set [3] is described as follows: physchem. The note with it: for solubility thermodynamic: read-out: Cs. In kind it is physicochemical. The procedure:
Solubility Determination: The solubility of buprenorphine base and HCl salt in various vehicles was obtained by equilibrating a large excess of solute with the vehicle in a water-jacketed glass container. Temperature was maintained at 32° C. by a constant temperature water bath and vigorous mixing with a magnetic stirring bar. Equilibrium time for all the studies was ≥48 hr. An excess of solute was always present in the slurries. Samples were taken, filtered through glass wool-tipped pipets, and an appropriate volume of filtrate was diluted with acetonitrile and assayed by HPLC. The procedure was repeated three times and an average value calculated.

Data set [4] is described as follows: Octanol-water partition coefficient.
The nature of data set [5]: in vitro. In kind it is in vitro ADME, Human. The note with it: for Jskin: n=3; for Papp: human, P = J/Cs, read-out: P (permeability coefficient) (converted). As for the experimental part:
as §1

Data set [6] in a line: pKa. The data set is classed as physicochemical.
The conditions of data set [7]: cited from earlier work.

Each structure is given as a SMILES string. Values after ≈ are worked out from the molar mass of the structure shown. Structures can show the parent of a compound that is named as a salt. Where two headings read alike, the source gives them in different places.

Consider `CO[C@@]12CC[C@@]3(C[C@@H]1[C@](C)(O)C(C)(C)C)[C@H]1Cc4ccc(O)c5c4[C@@]3(CCN1CC1CC1)[C@H]2O5` [Buprenorphine HCl], for which, in data set [1] (aqueous saturated solution), the “skin flux of HCl salt vs base (in words)” value was “higher than that of the base form”. For the same compound, the Jskin in data set [1] (epidermis) is 2.1 (2.4, 1.7) μg/cm^2 /h; in data set [1] (stripped epidermis) it was 20.5 ± 4.3 μg/cm^2 /h. Further, the “increase of skin flux upon stripping (fold)” value in data set [1] was found to be 10 fold. Further, the “skin flux from saturated solutions, comparison (in words)” value in data set [2] was “relatively higher penetration than the base form”. Further, the “solubility (in words)” value in data set [3] is reported as “considerably higher than the free base form's”. The compound further registered a Solubility in data set [3] (deionized water) of 12000 µg/mL. Also, the solubility in data set [3] (deionized water, water) was 12000 µg/mL; in data set [3] (propylene glycol, organic solvent or mixture), 22500 µg/mL. The same compound gave a logP in data set [4] of 2.63.
`CO[C@]12CC[C@@]3(C[C@@H]1[C@](C)(O)C(C)(C)C)[C@H]1Cc4ccc(O)c5c4[C@@]3(CCN1CC1CC1)[C@H]2O5` [Buprenorphine, (5α, 7α (s))-17-(cyclopropylmethyl)-α (1,1-dimethylethyl)-4,5-epoxy18,19-dihydro-3-hydroxy-6-methoxy-α-methyl-6,14-ethenomorphinan-7-methanol]: the Jskin in data set [5] (equilibrium pH 5.0, 32° C.) is 0.59 ± 0.13 μg/cm^2 /h; in data set [5] (equilibrium pH 6.0, 32° C.), 0.48 ± 0.02 μg/cm^2 /h; in data set [5] (equilibrium pH 7.0, 32° C.), 0.14 ± 0.01 μg/cm^2 /h; in data set [5] (equilibrium pH 7.9, 32° C.) it was 0.05 ± 0.02 μg/cm^2 /h; in data set [5] (equilibrium pH 8.7, 32° C.), 0.03 ± 0.01 μg/cm^2 /h; in data set [1] (epidermis), 0.37 (0.35, 0.39) μg/cm^2 /h. This compound returned a Jskin in data set [1] (stripped epidermis) of 2.2 ± 0.3 μg/cm^2 /h. The Papp in data set [5] (equilibrium pH 5.0, 32° C.) is 0.242 ×10⁻⁶ cm/s; in data set [5] (equilibrium pH 6.0, 32° C.), 1.64 ×10⁻⁶ cm/s; in data set [5] (equilibrium pH 7.0, 32° C.), 6.39 ×10⁻⁶ cm/s; in data set [5] (equilibrium pH 7.9, 32° C.), 23.1 ×10⁻⁶ cm/s; in data set [5] (equilibrium pH 8.7, 32° C.), 58.3 ×10⁻⁶ cm/s. In data set [5] (pH 8.7 to 5), the “skin flux as a function of pH (in words)” value is “increased as the pH was decreased to 5”. Besides, in data set [5] (pH raised to 8.7), the “permeability coefficient as a function of pH (in words)” value is on record as “increased as the pH was raised to 8.7”. The compound further registered a pKa in data set [6] of 8.4. Besides, in data set [1], the “increase of skin flux upon stripping (fold)” value is 6 fold. For the same compound, the Solubility was determined as 88600 µg/mL (≈ 189000 µM) in data set [3] (Transcutol, 32° C.) and 8 µg/mL (≈ 17.1 µM) in data set [3] (Water (deionized), 32° C.). Moreover, the solubility in data set [3] (Water (deionized), 32° C., read-out: Solubility) amounted to 8 µg/mL (≈ 17.1 µM); in data set [3] (organic solvent or mixture, Ethanol (absolute), 32° C., read-out: Solubility), 58400 µg/mL (≈ 125000 µM); in data set [3] (organic solvent or mixture, Isopropyl myristate, 32° C., read-out: Solubility), 13300 µg/mL (≈ 28400 µM); in data set [3] (organic solvent or mixture, Propylene Glycol, 32° C., read-out: Solubility), 5100 µg/mL (≈ 10900 µM); in data set [3] (organic solvent or mixture, Propylene glycol-monolaurate, 32° C., read-out: Solubility), 37900 µg/mL (≈ 81000 µM); in data set [3] (organic solvent or mixture, Transcutol, 32° C., read-out: Solubility), 88600 µg/mL (≈ 189000 µM). The solubility thermodynamic in data set [3] (equilibrium pH 5.0, 32° C.) turned out to be 692 µg/mL (≈ 1480 µM); in data set [3] (equilibrium pH 6.0, 32° C.) it was 82 µg/mL (≈ 175 µM); in data set [3] (equilibrium pH 7.0, 32° C.), 6 µg/mL (≈ 12.8 µM); in data set [3] (equilibrium pH 7.9, 32° C.), 0.6 µg/mL (≈ 1.28 µM); in data set [3] (equilibrium pH 8.7, 32° C.) it was 0.14 µg/mL (≈ 0.299 µM). For the same compound, in data set [3] (pH 5.0 to 8.7), the “solubility as a function of pH (in words)” value was “decreases exponentially as the pH increases”. The logP in data set [4] was 3.09. Moreover, the “CIT (clearance, ClT)” value in data set [7] (Daily dose […] (i.v., tid)) is on record as 77 ± 5 L/h. In data set [7] (Daily dose […] (i.v., tid)), the “T1/2 β” value is listed as 3.1 ± 0.6 h. Moreover, the distribution volume (Vdss) in data set [7] (in vivo, iv) is given as 188 ± 35 L. For the same compound, the “MEC (analgesics)” value in data set [7] (in vivo) is 0.5 to 0.7 ng/mL.
